The record followed here is publication PMC11284800 (Journal of Medicinal Chemistry, 2024).

Read-outs that look alike come from different tables or passages of the source. Bounds are passed on as bounds.

One data set deals with hCB1R (Homo sapiens, UniProt P21554). The data set can be described thus: [3H]CP55,940 displacement assay on CHO membranes, CB1R. The class given is binding. More on the design: host or cells: CHO-K1 (CHOK1hCB1_bgal). The settings on record: for hCB1R % displacement at 10 µM: [3H]CP55,940 displacement at 10 µM compound, ± SEM; for Ki: [3H]CP55,940 displacement, CHO membranes stably expressing human CB1R, means of three experiments; for Binding to CB1R (in words): radioligand binding assay.

Data set [1] in a line: Photophysical characterization in PBS. The settings on record: PBS pH 7.4. The class given is physicochemical.
In a further data set the target is T1, human CB2R (Homo sapiens, UniProt P34972).
T1 construct: host or cells: CHO-K1 (CHOK1hCB2_bgal)
Kind of data set: [3H]CP55,940 displacement assay on CHO membranes, CB2R. The class given is binding. The settings on record: for hCB2R % displacement at 10 µM: [3H]CP55,940 displacement at 10 µM compound, ± SEM; for Ki: [3H]CP55,940 displacement, CHO membranes stably expressing human CB2R, means of three experiments; for Binding to CB2R (in words): radioligand binding assay.

T1 sequence (P34972 whole entry): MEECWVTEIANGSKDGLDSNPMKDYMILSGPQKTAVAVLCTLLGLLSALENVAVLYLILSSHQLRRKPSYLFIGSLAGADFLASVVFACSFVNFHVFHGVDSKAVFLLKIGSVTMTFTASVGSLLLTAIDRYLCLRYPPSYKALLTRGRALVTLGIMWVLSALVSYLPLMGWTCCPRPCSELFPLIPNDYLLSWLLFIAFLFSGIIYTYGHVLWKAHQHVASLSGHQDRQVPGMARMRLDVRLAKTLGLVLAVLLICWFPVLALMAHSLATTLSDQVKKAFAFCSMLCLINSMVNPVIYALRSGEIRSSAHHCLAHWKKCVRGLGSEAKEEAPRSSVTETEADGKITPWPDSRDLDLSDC
Chain of hCB1R (P21554 whole entry): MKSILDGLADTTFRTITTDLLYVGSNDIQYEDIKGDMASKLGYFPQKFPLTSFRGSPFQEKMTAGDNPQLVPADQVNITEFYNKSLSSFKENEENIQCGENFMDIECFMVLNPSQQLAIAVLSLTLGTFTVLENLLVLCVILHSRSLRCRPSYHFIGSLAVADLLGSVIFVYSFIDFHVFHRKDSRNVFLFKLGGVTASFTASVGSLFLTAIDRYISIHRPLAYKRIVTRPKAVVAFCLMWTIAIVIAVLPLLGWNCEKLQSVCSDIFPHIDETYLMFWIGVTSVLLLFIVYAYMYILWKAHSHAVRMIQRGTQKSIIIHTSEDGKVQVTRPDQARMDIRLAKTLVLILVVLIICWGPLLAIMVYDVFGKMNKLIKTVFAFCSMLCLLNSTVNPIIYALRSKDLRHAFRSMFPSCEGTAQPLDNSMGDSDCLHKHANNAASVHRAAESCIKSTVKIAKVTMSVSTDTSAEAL

What is called Ki is a dissociation constant, usually derived from enzyme kinetics or from competition with a known ligand. In the case of `CCC(CC)(NC(=O)c1cnc(OCCOC)c(-c2ccc(Cl)cc2)n1)C(=O)NCCOCCOCCNC(=O)c1ccc2c(c1)C(=O)OC21c2ccc(N(C)C)cc2Oc2cc(N(C)C)ccc21` [Compound 35], at hCB1R, the “hCB1R % displacement at 10 µM” value was -6 ± 5% and the “Binding to CB1R (in words)” value is “did not bind”. In addition, the Ki on hCB1R (read-out: hCB1R Ki) is > 10000 nM. Moreover, in data set [1], the “Abs (absorbance maximum)” value was found to be 560 nm, the “Em (emission maximum)” value is given as 590 nm and the “QY (quantum yield)” value amounted to 56.20%. In addition, on human CB2R, the “hCB2R % displacement at 10 µM” value worked out at 2 ± 0% and the “Binding to CB2R (in words)” value is reported as “did not bind”. Besides, the Ki on human CB2R (read-out: hCB2R Ki) was > 10000 nM.
Compound `CCC(CC)(NC(=O)c1nn(Cc2cccc(F)c2)c2ccccc12)C(=O)NCCOCCOCCNc1ccc([N+](=O)[O-])c2nonc12` [Compound 36, 1-(3-Fluorobenzyl)-N-(3-((2-(2-(2-((7-nitrobenzo[c][1,2,5]oxadiazol-4-yl)amino)ethoxy)ethoxy)ethyl)carbamoyl)pentan-3-yl)-1H-indazole-3-carboxamide] had a Ki on hCB1R (hCB1R Ki) of 1170 nM. Also, in data set [1], the “Abs (absorbance maximum)” value was found to be 475 nm, the “Em (emission maximum)” value stood at 565 nm and the “QY (quantum yield)” value is given as 1.50%. The compound also yielded a Ki at human CB2R (hCB2R Ki) of 79 nM.
Consider `CCC(CC)(NC(=O)c1cnc(OCC2CC2)c(-c2ccc(F)cc2)c1)C(=O)NCCOCCOCCNc1ccc([N+](=O)[O-])c2nonc12` [Compound 40, 6-(Cyclopropylmethoxy)-5-(4-fluorophenyl)-N-(3-((2-(2-(2-((7-nitrobenzo[c][1,2,5]oxadiazol-4-yl)amino)ethoxy)ethoxy)ethyl)carbamoyl)pentan-3-yl)nicotinamide], for which the “hCB1R % displacement at 10 µM” value at hCB1R came out at 34 ± 1%. For the same compound, at hCB1R (hCB1R Ki), the Ki is > 10000 nM. Besides, in data set [1], the “Abs (absorbance maximum)” value was 465 nm, the “Em (emission maximum)” value was found to be 550 nm and the “QY (quantum yield)” value was 1.30%. In addition, the Ki at human CB2R (hCB2R Ki) is 481 nM.
Turning to `CCC(CC)(NC(=O)c1cnc(OCC2CC2)c(-c2ccc(F)cc2)c1)C(=O)NCCOCCOCCNC(=O)c1ccc2c(c1)C(=O)OC21c2ccc(N(C)C)cc2Oc2cc(N(C)C)ccc21` [Compound 41], on hCB1R, the “hCB1R % displacement at 10 µM” value is on record as 9 ± 1% and the “Binding to CB1R (in words)” value is reported as “did not bind”. Further, the Ki at hCB1R (read-out: hCB1R Ki) is > 10000 nM. For the same compound, in data set [1], the “Abs (absorbance maximum)” value amounted to 560 nm, the “Em (emission maximum)” value was found to be 585 nm and the “QY (quantum yield)” value is given as 47.40%. For the same compound, at human CB2R, the “hCB2R % displacement at 10 µM” value was determined as 27 ± 3% and the “Binding to CB2R (in words)” value is “did not bind”. For the same compound, the Ki on human CB2R (read-out: hCB2R Ki) is > 10000 nM.
Regarding `CCC(CC)(NC(=O)c1cc(-c2cc(C(F)(F)F)ccc2C(F)(F)F)n(C[C@H]2CCCO2)c1C)C(=O)NCCOCCOCCNc1ccc([N+](=O)[O-])c2nsnc12` [Compound 51, (R)-5-(2,5-Bis(trifluoromethyl)phenyl)-2-methyl-N-(3-((2-(2-(2-((7-nitrobenzo[c][1,2,5]thiadiazol-4-yl)amino)ethoxy)ethoxy)ethyl)carbamoyl)pentan-3-yl)-1-((tetrahydrofuran-2-yl)methyl)-1H-pyrrole-3-carboxamide], on hCB1R (read-out: hCB1R Ki), the Ki is 316 nM. For the same compound, in data set [1], the “Abs (absorbance maximum)” value is 465 nm, the “Em (emission maximum)” value came out at 550 nm and the “QY (quantum yield)” value worked out at 0.30%. Also, the Ki on human CB2R (read-out: hCB2R Ki) worked out at 493 nM.
In the same order, the values of `CCC(CC)(NC(=O)c1cc(-c2cc(C(F)(F)F)ccc2C(F)(F)F)n(C[C@H]2CCCO2)c1C)C(=O)NCCOCCOCCNc1ccc([N+](=O)[O-])c2n[nH]nc12` [Compound 52, (R)-5-(2,5-Bis(trifluoromethyl)phenyl)-2-methyl-N-(3-((2-(2-(2-((7-nitro-2H-benzo[d][1,2,3]triazol-4-yl)amino)ethoxy)ethoxy)ethyl)carbamoyl)pentan-3-yl)-1-((tetrahydrofuran-2-yl)methyl)-1H-pyrrole-3-carboxamide] are 225 nM, 425 nm, 495 nm, 0.10% and 1620 nM.
